Data from the NIST ThermoML archive (doi:10.1021/je0602723).
Numbers after ± are expanded uncertainties.

Experiment: activity coefficient (dimensionless); of the first substance listed, at infinite dilution; xn = mol fraction of the nth substance listed
Settings: Liquid, Chromatography, x1 = 0

Cc1ccccc1 [toluene] + CCOS(=O)(=O)[O-].CCn1cc[n+](C)c1
Settings	activity coefficient
312.3 K	5.77 ± 0.39
323 K	5.62 ± 0.38
333.5 K	5.45 ± 0.37
343.9 K	5.29 ± 0.36
354.4 K	5.08 ± 0.35
364.7 K	4.88 ± 0.33
